Test results reported in US20090137652A1, “METHODS FOR NEUROPROTECTION” (priority 2005, published 2009).
Marks after values point to notes of the source that are not given here.

Columns and labels:
[1] = system: rats subjected to li-pilo SE; assay: Quantification of cell densities 14 days after lithium-pilocarpine SE (Example 2); type: in vivo, rat; conditions: 14 days after SE
Experimental: All rats received lithium chloride (3 meq/kg, i.p., Sigma, St Louis, Mo., U.S.A.) and about 20 h later, all animals received also methylscopolamine bromide (1 mg/kg, s.c., Sigma) that was administered to limit the peripheral effects of the convulsant. SE was induced by injecting pilocarpine hydrochloride (25 mg/kg, s.c., Sigma) 30 min after methylscopolamine. The effects of increasing doses of TC (RWJ) were studied in 5 groups of rats. […] The control group received vehicle instead of pilocarpine and TC.
At the moment, neuronal counting is still in progress in the second group of animals studied for epileptogenesis and long-term counting and the data concerning that part of the study will not be included in the present report. For neuronal counting, animals were deeply anesthetized with […] pentobarbital (Dolethal®, Vetoquinol, Lure, France). Brains were then removed and frozen. Serial 20 μm slices were cut in a cryostat, air-dried during several days before thionine staining. […] The grid of counting was placed on a well defined area of the cerebral structure of interest and counting was carried out with a microscopic enlargement of 200- or 400-fold defined for each single cerebral structure. Cell counts were performed twice on each side of three adjacent sections for each region by a single observer unaware of the animal's treatment. The number of cells obtained in the 12 counted fields in each cerebral structure was averaged. This procedure was used to minimize the potential errors that could result from double counting leading to overestimation of cell numbers. […] Counts involved only neurons with cell bodies larger than 10 μm. Cells with small cell bodies were considered as glial cells and were not counted.
For neuronal damage and epileptogenesis, statistical analysis between groups was performed by means of a one-way analysis of variance followed by a post-hoc Dunnett or Fisher test using the Statistica software.

PC12 cells = assay: PC12 cell serum withdrawal model, MTS cell survival assay; type: cell-based
Description: Serum withdrawal is a cytotoxic environmental challenge that results in cell death in cultured cell lines as well as in primary cells of various tissue origins, including nerve cells. In particular, pheochromocytoma (PC) 12 cells have been widely employed as an in vitro neuronal cell model for a wide variety of neurodegenerative and cell death related disorders (Muriel, et al, Mitochondrial free calcium levels (Rhod-2 fluorescence) and ultrastructural alterations in neuronally differentiated PC12 cells during ceramide-dependent cell death, J. Comp. Neurol., 2000, 426(2), 297-315; Dermitzaki, et al, Opioids transiently prevent activation of apoptotic mechanisms following short periods of serum withdrawal, J. Neurochem., 2000, 74(3), 960-969; Carlile, et al, Reduced apoptosis after nerve growth factor and serum withdrawal: conversion of tetrameric glyceraldehyde-3-phosphate dehydrogenase to a dimer, Mol. Pharmacol., 2000, 57(1), 2-12). PC12 cells were cultured in sterile media (RPMI 1640) supplemented with 10% heat-inactivated horse serum and 5% fetal bovine serum (FBS). The culture medium also contained Penicillin-Streptomycin-Neomycin antibiotic (50 µg, 50 µg, 100 µg, respectively). Medium was exchanged every other day and the cells were passed in log phase near confluence.
The control cells were cultured in regular media without any treatment. An enantiomer of Formula 7 or Formula 8 (10 µM) was mixed well in the medium and then applied to the cells. For the 2 day assay, an enantiomer of Formula 7 or Formula 8 (10 µM) was only applied to the cells once at the time of serum withdrawal. For the 7 day assay, an enantiomer of Formula 7 or Formula 8 (10. mu.M) was applied to the cells at the time of serum withdrawal and every 48 hr thereafter when cells were changed with fresh new serum-free medium. In the serum withdrawal group, the cells were cultured in serum-free medium with no additional enantiomer of Formula 7 or Formula 8. Cell survival was determined by the 3-(4,5-dimethylthiazol-2-yl)-5-(3-[…])-2-(4-sulfophenyl)-2H-tetrazolium inner salt (MTS) assay at 2 or 7 days after serum withdrawal.
At the end of the experiment, cells were washed with fresh medium and incubated with MTS solution in a humidified 37° C. with 5% CO2 incubator for 1.5 hr. After the incubation period, the cells were immediately analyzed using a Softmax program (Molecular Devices). […] The assay is based on the cellular conversion of the tetrazolium salt, MTS, into a formazan that is soluble in tissue culture medium and measured directly at 490 nm in 96-well assay plates. The absorbance is directly proportional to the number of living cells in culture. The arbitrary absorbance reading in control cells is expressed as 100% survival rate.

[2] = system: rats subjected to li-pilo SE; assay: Latency to and frequency of spontaneous seizures by video recording, lithium-pilocarpine model (Example 2); type: in vivo, rat; conditions: pilo-TC90 (90 mg/kg), Non epileptic subgroup (n = 5), no seizure over 150 days post-SE

In the case of `NC(=O)OC[C@@H](O)c1ccccc1Cl` [Formula 7], the “number of neuronal cell bodies, Thalamus, Dorsolateral, ventral lateral” value (“number of neuronal cell bodies … ventral lateral” below) ([1]; pilo-TC60 (60 mg/kg), n = 11) is reported as 56.7 ± 8.7, the “number of neuronal cell bodies, Thalamus, Mediodorsal central” value (from here on “number … Mediodorsal central”) ([1]; pilo-TC60 (60 mg/kg), n = 11) is reported as 24.1 ± 1 and the “number of neuronal cell bodies, Thalamus, Mediodorsal lateral” value (shortened to “number … Mediodorsal lateral”) ([1]; pilo-TC60 (60 mg/kg), n = 11) is reported as 18.9 ± 0.6. For the same compound, the “number of neuronal cell bodies, Thalamus, Mediodorsal medial” value (“number … Mediodorsal medial” below) ([1]; pilo-TC60 (60 mg/kg), n = 11) was 19.1 ± 2.6, the “number of neuronal cell bodies, Amygdala, Basolateral” value ([1]; pilo-TC90 (90 mg/kg), n = 10) was 40.7 ± 1.6°° and the “number of neuronal cell bodies, Amygdala, Medial, dorsal anterior” value ([1]; pilo-TC90 (90 mg/kg), n = 10) was 72.2 ± 5.7°°. For the same compound, the “number of neuronal cell bodies, Amygdala, Medial, ventral posterior” value ([1]; pilo-TC90 (90 mg/kg), n = 10) was 30.7 ± 3.7°°, the “number of neuronal cell bodies, Cerebral cortex, Entorhinal, layer II, dorsal” value ([1]; pilo-TC90 (90 mg/kg), n = 10) was 26.3 ± 0.9 and the “number of neuronal cell bodies, Cerebral cortex, Entorhinal, layer II, ventral” value ([1]; pilo-TC90 (90 mg/kg), n = 10) was 25.4 ± 1.1°. For the same compound, the “number of neuronal cell bodies, Cerebral cortex, Entorhinal, layer III/IV, dorsal” value ([1]; pilo-TC90 (90 mg/kg), n = 10) was 26.7 ± 0.8, the “number of neuronal cell bodies, Cerebral cortex, Entorhinal, layer III/IV, ventral” value ([1]; pilo-TC90 (90 mg/kg), n = 10) was 23.7 ± 1.5°° and the “number of neuronal cell bodies, Cerebral cortex, Piriform, layer II, dorsal” value ([1]; pilo-TC90 (90 mg/kg), n = 10) was 32.4 ± 1.1°°. For the same compound, the “number of neuronal cell bodies, Cerebral cortex, Piriform, layer II, ventral” value ([1]; pilo-TC90 (90 mg/kg), n = 10) was 18.4 ± 4.0°°, the “number of neuronal cell bodies, Cerebral cortex, Piriform, layer III” value ([1]; pilo-TC90 (90 mg/kg), n = 10) was 9 ± 3.0°° and the “number of neuronal cell bodies, Hippocampus, CA1 area” value ([1]; pilo-TC90 (90 mg/kg), n = 10) was 47.7 ± 6.6*°. For the same compound, the “number of neuronal cell bodies, Hippocampus, CA3 area” value ([1]; pilo-TC90 (90 mg/kg), n = 10) was 35.1 ± 2.9, the “number of neuronal cell bodies, Hippocampus, Hilus” value ([1]; pilo-TC90 (90 mg/kg), n = 10) was 37.5 ± 3.1 and the “number of neuronal cell bodies, Thalamus, Central medial” value ([1]; pilo-TC90 (90 mg/kg), n = 10) was 88.2 ± 8.5. The “number of neuronal cell bodies, Thalamus, Dorsolateral, medial, dorsal” value ([1]; pilo-TC90 (90 mg/kg), n = 10) was 79.4 ± 3.1**°°, the “number of neuronal cell bodies … ventral lateral” value ([1]; pilo-TC90 (90 mg/kg), n = 10) was 71.8 ± 5.3°°* and the “number … Mediodorsal central” value ([1]; pilo-TC90 (90 mg/kg), n = 10) was 27.4 ± 1.5. For the same compound, the “number … Mediodorsal lateral” value ([1]; pilo-TC90 (90 mg/kg), n = 10) was 22 ± 1.2*°, the “number … Mediodorsal medial” value ([1]; pilo-TC90 (90 mg/kg), n = 10) was 23.1 ± 2.8°° and the “number of neuronal cell bodies, Amygdala, Basolateral” value ([1]; pilo-TC120 (120 mg/kg), n = 8) was 42.7 ± 1.3°°. For the same compound, the “number of neuronal cell bodies, Amygdala, Medial, dorsal anterior” value ([1]; pilo-TC120 (120 mg/kg), n = 8) was 80.2 ± 2.6°°, the “number of neuronal cell bodies, Amygdala, Medial, ventral posterior” value ([1]; pilo-TC120 (120 mg/kg), n = 8) was 34.7 ± 1.7°° and the “number of neuronal cell bodies, Cerebral cortex, Entorhinal, layer II, dorsal” value ([1]; pilo-TC120 (120 mg/kg), n = 8) was 27.3 ± 0.5°°. For the same compound, the “number of neuronal cell bodies, Cerebral cortex, Entorhinal, layer II, ventral” value ([1]; pilo-TC120 (120 mg/kg), n = 8) was 25.1 ± 0.6, the “number of neuronal cell bodies, Cerebral cortex, Entorhinal, layer III/IV, dorsal” value ([1]; pilo-TC120 (120 mg/kg), n = 8) was 26.4 ± 0.7°° and the “number of neuronal cell bodies, Cerebral cortex, Entorhinal, layer III/IV, ventral” value ([1]; pilo-TC120 (120 mg/kg), n = 8) was 24.5 ± 1.4°°. The “number of neuronal cell bodies, Cerebral cortex, Piriform, layer II, dorsal” value ([1]; pilo-TC120 (120 mg/kg), n = 8) was 35.2 ± 1.1°°, the “number of neuronal cell bodies, Cerebral cortex, Piriform, layer II, ventral” value ([1]; pilo-TC120 (120 mg/kg), n = 8) was 30.5 ± 1.3°° and the “number of neuronal cell bodies, Cerebral cortex, Piriform, layer III” value ([1]; pilo-TC120 (120 mg/kg), n = 8) was 15 ± 2.2°°. For the same compound, the “number of neuronal cell bodies, Hippocampus, CA1 area” value ([1]; pilo-TC120 (120 mg/kg), n = 8) was 65.5 ± 2.9°°, the “number of neuronal cell bodies, Hippocampus, CA3 area” value ([1]; pilo-TC120 (120 mg/kg), n = 8) was 39.8 ± 1.5 and the “number of neuronal cell bodies, Hippocampus, Hilus” value ([1]; pilo-TC120 (120 mg/kg), n = 8) was 44.8 ± 2.9. The “number of neuronal cell bodies, Thalamus, Central medial” value ([1]; pilo-TC120 (120 mg/kg), n = 8) was 108.2 ± 6.6°, the “number of neuronal cell bodies, Thalamus, Dorsolateral, medial, dorsal” value ([1]; pilo-TC120 (120 mg/kg), n = 8) was 89.8 ± 3.7*° and the “number of neuronal cell bodies … ventral lateral” value ([1]; pilo-TC120 (120 mg/kg), n = 8) was 79.0 ± 4.7°°. For the same compound, the “number … Mediodorsal central” value ([1]; pilo-TC120 (120 mg/kg), n = 8) was 29.9 ± 1.7°, the “number … Mediodorsal lateral” value ([1]; pilo-TC120 (120 mg/kg), n = 8) was 24.4 ± 1.1°° and the “number … Mediodorsal medial” value ([1]; pilo-TC120 (120 mg/kg), n = 8) was 28.6 ± 0.8°°. The “2 Day Survival Rate” value (PC12 cells; 10 µM applied once at serum withdrawal, MTS assay 2 days after serum withdrawal, control 100, serum-free 49.6) was 69.4 ± 1.7^1%, the “7 Day Survival Rate” value (PC12 cells; 10 µM at serum withdrawal and every 48 hr, MTS assay 7 days after serum withdrawal, control 100, serum-free 23.8) was 79.9 ± 4.0^2% and the “Latency to the first spontaneous seizure” value [2] was 150** °° days.
